Like-named read-outs stand apart in the source and are kept apart here.
Experiments:
[1] = system: HTB-54, DU-145, HT-29 and MDA-MB-231 cancer cell lines; assay: cells; type: cell-based; settings: against the panel of the four cancer cell lines
Method: (§1) The cell lines were obtained from the American Type Culture Collection (ATCC). Five tumor cell lines (MDA-MB-231, MCF-7, HCT116, HTB-54, and DU-145) and two non-tumorigenic cells (184B5 and BEAS-2B) were grown in RPMI 1640 medium (Gibco), and the HT-29 tumor cell line was grown in McCoy’s medium. Both mediums were supplemented with 10% fetal bovine serum (FBS; Gibco) and 1% antibiotics (10.00 units/mL penicillin and 10.00 μg/mL streptomycin; Gibco). Cells were preserved in tissue culture flasks at 37 °C and 5% CO2. The culture medium was replaced every three days.
(§2) The effect of each compound on cell viability was tested using the MTT assay. […] Selected compounds were then tested at seven different concentrations (0.5–100 μM) in MCF-7, HCT116, HT-29, HTB-54, 184B5 and BEAS-2B cells. Cells were seeded at 10^4 per well onto flat-bottomed 96-well culture plates. They were treated with either DMSO or increasing concentration of the corresponding compound for 48 h. Then, they were incubated with 20 μL of 3-(4,5-dimethylthiazol-2-yl)-2,5-diphenyltetrazolium bromide (MTT) (2 mg /mL stock; Aldrich) for 2,5 h and analyzed for their ability to generate a purple formazan dye. These formazan crystals were dissolved in 50 μL of DMSO. The absorbance was measured at a wavelength of 550 nm and the ratio of viable cells was calculated.
As a first approach, all the compounds were tested in vitro against lung (HTB-54), prostatic (DU-145), colon (HT-29), and triple-negative breast (MDA-MB-231) cancer cell lines at two concentrations (50 and 10 µM) for 48 h. Then, the MTT colorimetric assay was used to evaluate cell proliferation after the treatment. The data are expressed as the percentage of cell growth ± SD in at least three independent experiments performed in quadruplicates (Table S1).

DU-145 cells = assay: MTT cell viability assay, DU-145; type: cell-based; settings: Homo sapiens, DU-145, 48 h, read-out: Cell growth % at 10 µM, DU-145
Method: as §1, §2
(§3) Results are expressed as cell viability % at 10 μM. Selectivity index were calculated as the ratio of the IC50 values determined for the non-malignant and the tumor cells in breast (IC50 (184B5)/IC50 (MCF-7)) and lung (IC50 (BEAS-2B)/IC50 (HTB-54)) cell lines. Data were obtained from at least three independent experiments performed in triplicates.

HT-29 cells [2] = assay: MTT cell viability assay, HT-29; type: cell-based; settings: Homo sapiens; for viability at 10 µM: HT-29, 10 µM, 48 h, read-out: Cell growth % at 10 µM, HT-29; for IC50: HT-29, 48 h
Method: as §1, §2, §3

HCT116 cells = assay: MTT cell viability assay, HCT116; type: cell-based; settings: Homo sapiens, HCT-116, 48 h
Method: as §1, §2, §3

BEAS-2B cells = assay: MTT cell viability assay, BEAS-2B (non-tumorigenic); type: cell-based; settings: Homo sapiens, 48 h, nonmalignant bronchial epithelium
Method: as §1, §2, §3

MDA-MB-231 cells = assay: MTT cell viability assay, MDA-MB-231; type: cell-based; settings: Homo sapiens, MDA-MB-231, 48 h, read-out: Cell growth % at 10 µM, MDA-MB-231
Method: as §1, §2, §3

AChE = molecular target: T1, AChE (Rattus norvegicus, UniProt P37136); assay: AChE inhibition by Ellman's method (rat frontal cortex homogenate); type: biochemical
T1 construct: from tissue; host or cells: frontal cortex of male Wistar rats (crude homogenate)
T1 sequence (P37136 32-614): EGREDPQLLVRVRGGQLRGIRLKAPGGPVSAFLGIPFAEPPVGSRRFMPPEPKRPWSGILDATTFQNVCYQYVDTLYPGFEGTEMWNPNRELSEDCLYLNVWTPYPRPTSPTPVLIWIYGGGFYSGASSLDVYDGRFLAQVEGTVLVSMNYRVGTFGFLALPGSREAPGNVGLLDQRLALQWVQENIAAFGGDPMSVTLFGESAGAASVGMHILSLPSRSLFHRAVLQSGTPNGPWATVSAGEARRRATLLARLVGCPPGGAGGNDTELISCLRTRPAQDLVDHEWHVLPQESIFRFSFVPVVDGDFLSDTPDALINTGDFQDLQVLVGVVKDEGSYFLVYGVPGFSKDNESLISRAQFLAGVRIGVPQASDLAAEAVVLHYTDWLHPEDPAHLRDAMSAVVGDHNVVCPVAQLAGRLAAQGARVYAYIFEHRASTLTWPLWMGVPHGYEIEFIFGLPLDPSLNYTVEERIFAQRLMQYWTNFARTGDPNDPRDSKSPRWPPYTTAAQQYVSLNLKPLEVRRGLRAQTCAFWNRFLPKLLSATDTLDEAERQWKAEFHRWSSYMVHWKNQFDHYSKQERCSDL
Method: Frontal cortex tissue obtained from male Wistar rats was homogenized in 39 volumes of 75 mM sodium phosphate buffer (pH 7.4). A mixture of 260 μL containing the compounds assessed, acetylthiocholine iodide and 5 μL tissue homogenate was incubated for 8 min. The reaction was then terminated by adding 50 μL 3% (w/v) sodium dodecyl sulphate followed by 50 μL 0.2% (w/v) 5,5′-dithio-bis(2-nitrobenzoic) acid to produce the yellow anion of 5-thio-2-nitro-benzoic-acid. The extent of the color production was measured spectrophotometrically at 405 nm using Multiskan Ex (Thermo Electron Corporation). […] Results are expressed as the mean ± SD and each experiment was repeated three times.

MCF-7 cells [3] = assay: MTT cell viability assay, MCF-7; type: cell-based; settings: for IC50: Homo sapiens, MCF7, MTT, 48 h; for SI (breast): IC50 (184B5)/IC50 (MCF-7)
Method: as §1, §2, §3

184B5 cells = assay: MTT cell viability assay, 184B5 (non-tumorigenic); type: cell-based; settings: Homo sapiens, 48 h, nonmalignant mammary gland
Method: as §1, §2, §3

HTB-54 cells [4] = assay: MTT cell viability assay, HTB-54; type: cell-based; settings: for viability at 10 µM / IC50: HTB-54, 48 h, MTT; for viability at 10 µM: read-out: Cell growth % at 10 µM, HTB-54; for SI (lung): IC50 (BEAS-2B)/IC50 (HTB-54)
Method: as §1, §2, §3

HTB-54 cells [5] = system: HTB-54 cells; parameters: method as in PMID 36257283; settings: parent NSAIDs; cited from earlier work
HT-29 cells [6] = settings: cited from earlier work
MCF-7 cells [7] = system: MCF-7 cells; parameters: method as in PMID 36257283; settings: parent NSAIDs; cited from earlier work
[8] = system: panel of 60 human tumor cell lines; parameters: method as in PMID 19549304; settings: same cell line panel; cited from earlier work
in vitro = settings: for Papp at 20 h, 500 µg/mL: PAMPA; for Pe ± SD: porcine brain lipid, 20 h, 25 °C; for BBB Permeation (Experimental): class from PAMPA-BBB Pe
Method: Franz diffusion cells (Microette 8910130, Hanson Research) were employed to perform this assay. The compounds were dissolved in DMSO at 5 mg/mL and diluted to 500 µg/mL with phosphate-buffered saline (PBS)/EtOH (7:3) to make a stock solution. A total of 10 µL of porcine brain lipid (PBL) diluted in dodecane solution (20 mg/mL) was spread onto a PVDF membrane that was placed between the donor and acceptor compartments, forming a sandwich structure. Then, 4.5 mL of PBS/EtOH (7:3) was added to the acceptor compartment and 700 µL of the stock solution was added to the donor cell. […] The concentration of the compound was calculated from the standard curve and expressed as permeability (Pe) by the following formula [84]:Permeability (cm/s): Pe = {−ln [1 − CA(t)/Ceq]}/[A ∗ (1/VD + 1/VA) ∗ t]
A = filter area ([…]), VD = donor cell volume (0.7 mL), VA = acceptor cell volume (4.5 mL), t = incubation time, CA (t) = compound concentration in acceptor cell at time t, CD (t) = compound concentration in donor cell at time t, and Ceq = [CD(t) ∗ VD + […] ∗ VA]/(VD + VA).
Every sample was analyzed at least in duplicate and the data were reported as mean ± SD.

SMILES | viability at 10 µM (DU-145 cells) [%] | viability at 10 µM (HT-29 cells [2]) [%] | viability at 10 µM (MDA-MB-231 cells) [%] | inhibition at 1 µM (AChE; at 10^−6 M, Ellman's method) [%] | viability at 10 µM (HTB-54 cells [4]) [%] | other results
C=CC[Se]C(=O)C(C)c1ccc2cc(OC)ccc2c1 [Compound 16a, Se-allyl (S)-2-(6-methoxynaphtalen-2-yl)propaneselenoate] | 18.8 ± 6.3 | 49.9 ± 5.6 | 33.8 ± 5.6 | 20.3 ± 4.2 | 30.9 ± 6.7 | viability at 10 µM [1]: < 55%; IC50 (HT-29 cells [2]): 9.4 ± 0.6 µM; IC50 (HCT116 cells): 27.1 ± 2.7 µM; IC50 (BEAS-2B cells): 14.7 ± 8.7 µM; IC50 (MCF-7 cells [3]): 10.9 ± 1.3 µM; SI (breast) (MCF-7 cells [3]): 1.0; IC50 (184B5 cells): 11.1 ± 1.1 µM; IC50 (HTB-54 cells [4]): 9.9 ± 0.3 µM; SI (lung) (HTB-54 cells [4]): 1.5
CC(=O)Oc1ccccc1C(=O)O [ASA] |  |  |  |  |  | IC50 (HTB-54 cells [5]): > 100 µM; IC50 (HT-29 cells [6]; parent NSAIDs): > 100 µM; IC50 (MCF-7 cells [7]): > 100 µM
CC(C)Cc1ccc(C(C)C(=O)O)cc1 (stereo not shown) [Ibuprofen, 2-(4-isobutylphenyl) propanoic acid] |  |  |  |  |  | IC50 (HT-29 cells [6]; parent NSAID): > 50 µM
O=c1[nH]cc(F)c(=O)[nH]1 [5-fluorouracil] |  |  |  |  |  | GI50 [8]: 57.5 µM
COc1ccc2cc([C@H](C)C(=O)O)ccc2c1 [Naproxen, (2S)-2-(6-methoxynaphtalen-2-yl) propanoic acid] |  |  |  |  |  | IC50 (HTB-54 cells [5]): > 100 µM; IC50 (HT-29 cells [6]; parent NSAIDs): > 100 µM; IC50 (MCF-7 cells [7]): > 100 µM
COc1ccc2c3c1O[C@H]1C[C@@H](O)C=C[C@@]31CCN(C)C2 [Galantamine, galantamine, reference compound] |  |  |  |  |  | Papp at 20 h, 500 µg/mL (in vitro): 12.3 ± 3.1 ×10⁻⁶ cm/s; Pe ± SD (in vitro; PAMPA-BBB): 12.27 ×10⁻⁶ cm/s; BBB Permeation (Experimental) (in vitro): High (High BBB permeation predicted; Pe (10^−6 cm s^−1) > 4.0)
C=CC[Se]C(=O)c1sccc1Cl [Compound 10a, Se-allyl 3-chlorothiophene-2-carboselenoate] | 33.4 ± 6.4 | 61.5 ± 17.6 | 41.3 ± 3.5 | 42.5 | 27.1 ± 11.2 | Papp at 20 h, 500 µg/mL (in vitro): 38.6 ± 1.3 ×10⁻⁶ cm/s; fold higher Pe compared to galantamine (in vitro; PAMPA-BBB): 3 fold; Pe ± SD (in vitro; PAMPA-BBB): 38.63 ×10⁻⁶ cm/s; BBB Permeation (Experimental) (in vitro): High (High BBB permeation predicted; Pe (10^−6 cm s^−1) > 4.0); IC50 (AChE): 2.4 ± 1.2 µM; % AChE Inhibition (AChE; at 10^−6 M, Ellman's method): 42.5 ± 6.4%
COc1cc2ncnc(Nc3ccc(F)c(Cl)c3)c2cc1OCCCN1CCOCC1 [gefitinib] |  |  |  |  |  | GI50 [8]: 3.24 µM
C=CC[Se]C(=O)C(C)c1ccc(CC(C)C)cc1 (stereo not shown) [Compound 15a] | 19.1 ± 7 | 49 ± 7.2 | 38 ± 5.4 | 19.3 ± 0.1 | 38 ± 7.1 | viability at 10 µM [1]: < 55%; IC50 (HT-29 cells [2]): 9.2 ± 0.7 µM; IC50 (HCT116 cells): 10.2 ± 0.1 µM; IC50 (BEAS-2B cells): 11.1 ± 2.6 µM; IC50 (MCF-7 cells [3]): 11.2 ± 0.2 µM; SI (breast) (MCF-7 cells [3]): 1.1; IC50 (184B5 cells): 11.5 ± 1.4 µM; IC50 (HTB-54 cells [4]): 23.5 ± 5.8 µM; SI (lung) (HTB-54 cells [4]): 0.5
O=C1[O][Pt]2([NH][C@@H]3CCCC[C@H]3[NH]2)[O]C1=O [oxaliplatin] |  |  |  |  |  | GI50 [8]: 2.89 µM
C=CC[Se]C(=O)c1ccccc1O [Compound 13a, Se-allyl 2-hydroxybenzoselenoate] | 29.5 ± 4.3 | 88.8 ± 8.6 | 77.1 ± 12.6 | 51.8 ± 4 | 40.9 ± 4.9 | stability during the PAMPA-BBB experiment (in vitro; observation in words): signs of degradation; IC50 (AChE): 5.2 ± 2.3 µM
C#CC[Se]C(=O)C(C)c1ccc(CC(C)C)cc1 (stereo not shown) [Compound 15b, Se-prop-2-ynyl 2-(4-isobutylphenyl)propaneselenoate] | 34.7 ± 6.3 | 59.3 ± 4 | 59.7 ± 15.7 | 8.5 ± 11.1 | 95.6 ± 5.7 | 
C=CC[Se]C(=O)c1ccco1 [Compound 11a, Se-allyl 4-furan-2-carboselenoate] | 35.3 ± 5.8 | 79.8 ± 16.3 | 34.1 ± 10.6 | 18.6 ± 2.8 | 30.7 ± 6.2 | 
C=CC[Se]C(=O)c1ccccc1 [Compound 2a, Se-allyl benzoselenoate] | 65.6 ± 5.6 | 85.3 ± 19.4 | 37.9 ± 3.6 | 22.6 ± 1.6 | 43.2 ± 9 | 
C#CC[Se]C(=O)c1ccccc1Cl [Compound 3b, Se-prop-2-ynyl 2-chlorobenzoselenoate] | 41.6 ± 3.5 | 81.8 ± 15.2 | 93.2 ± 10.2 | 23.7 ± 9 | > 100 | 
C=CC[Se]C(=O)c1ccno1 [Compound 12a, Se-allyl isoxazole-5-carboselenoate] | 62.7 ± 4.7 | 70.7 ± 10.7 | 96.8 ± 15.8 | 4.2 ± 6.7 | 95.5 ± 5.9 | 
C#CC[Se]C(=O)c1sccc1Cl [Compound 10b, Se-prop-2-ynyl 3-chlorothiophene-2-carboselenoate] | 66.6 ± 8.7 | 80.2 ± 10.9 | 62.5 ± 7.7 | 24.4 ± 7.1 | 81.2 ± 11.6 | 
C#CC[Se]C(=O)c1ccccc1Nc1cccc(C)c1C [Compound 18b, Se-prop-2-ynyl 2-(2,3-dimethylphenyl)aminobenzoselenoate] | 32.6 ± 4.6 | 66.5 ± 9.5 | 99 ± 11.2 | 20 ± 2.4 | 62.3 ± 8.3 | 

Source: article PMC9854712 (Antioxidants, 2023)
